Patent publication US11617726B2, “Method for preventing, treating, or ameliorating a microbial infection” (priority 2018, dated 2023)

Test system: Acinetobacter baumannii isolates
Test: Antimicrobial susceptibility test, disc diffusion method (CLSI M100-S24)
Assay type: cell-based
Parameters: key to Inhibition zone: “NZ” indicated that no zone of inhibition was observed
Conditions: for Inhibition zone: disc diffusion; for susceptibility category: IP disc
Method in brief: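 Disc diffusion per CLSI M100-S24 on 33 MDR clinical A. baumannii isolates from burn wards; 0.5 McFarland inoculum swabbed onto Mueller-Hinton agar, incubated aerobically 35-37° C, 18-20 h. Zone diameters measured to nearest mm and categorized S/I/R by CLSI breakpoints.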

CO[C@@]1(NC(=O)Cc2cccs2)C(=O)N2C(C(=O)O)=C(COC(N)=O)CS[C@@H]21 [FOX, Cefoxitin]
Inhibition zone (isolate AB1): NZ
Inhibition zone (isolate AB2): NZ
Inhibition zone (isolate AB3): NZ
Inhibition zone (isolate AB4): NZ
Inhibition zone (isolate AB5): NZ
Inhibition zone (isolate AB6): NZ
Inhibition zone (isolate AB7): NZ
Inhibition zone (isolate AB8): NZ
Inhibition zone (isolate AB9): NZ
Inhibition zone (isolate AB10): NZ
Inhibition zone (isolate AB11): NZ
Inhibition zone (isolate AB12): NZ
Inhibition zone (isolate AB13): NZ
Inhibition zone (isolate AB14): NZ
Inhibition zone (isolate AB15): NZ
Inhibition zone (isolate AB16): 22 mm
Inhibition zone (isolate AB17): NZ
Inhibition zone (isolate AB18): NZ
Inhibition zone (isolate AB19): NZ
Inhibition zone (isolate AB20): NZ
Inhibition zone (isolate AB21): NZ
Inhibition zone (isolate AB22): NZ
Inhibition zone (isolate AB23): NZ
Inhibition zone (isolate AB24): NZ
Inhibition zone (isolate AB25): NZ
Inhibition zone (isolate AB26): NZ
Inhibition zone (isolate AB27): NZ
Inhibition zone (isolate AB28): NZ
Inhibition zone (isolate AB29): NZ
Inhibition zone (isolate AB30): NZ
Inhibition zone (isolate AB31): 9 mm
Inhibition zone (isolate AB32): NZ
Inhibition zone (isolate AB33): NZ

C[C@@H](O)[C@H]1C(=O)N2C(C(=O)O)=C(SCCN=CN)C[C@H]12 [IP, Imipenem]
Inhibition zone (isolate AB1): NZ
Inhibition zone (isolate AB2): NZ
Inhibition zone (isolate AB3): NZ
Inhibition zone (isolate AB4): NZ
Inhibition zone (isolate AB5): 8 mm
Inhibition zone (isolate AB6): 12 mm
Inhibition zone (isolate AB7): NZ
Inhibition zone (isolate AB8): 7 mm
Inhibition zone (isolate AB9): NZ
Inhibition zone (isolate AB10): NZ
Inhibition zone (isolate AB11): NZ
Inhibition zone (isolate AB12): 11 mm
Inhibition zone (isolate AB13): 9 mm
Inhibition zone (isolate AB14): 15 mm
Inhibition zone (isolate AB15): NZ
susceptibility category (isolate AB16): S (Sensitive ≥22)
Inhibition zone (isolate AB16): 34 mm
Inhibition zone (isolate AB17): 15 mm
Inhibition zone (isolate AB18): NZ
Inhibition zone (isolate AB19): NZ
Inhibition zone (isolate AB20): 15 mm
Inhibition zone (isolate AB21): NZ
Inhibition zone (isolate AB22): 15 mm
Inhibition zone (isolate AB23): 20 mm
Inhibition zone (isolate AB24): NZ
susceptibility category (isolate AB25): S (Sensitive ≥22)
Inhibition zone (isolate AB25): 23 mm
susceptibility category (isolate AB26): S (Sensitive ≥22)
Inhibition zone (isolate AB26): 22 mm
Inhibition zone (isolate AB27): 9 mm
Inhibition zone (isolate AB28): 8 mm
Inhibition zone (isolate AB29): 9 mm
Inhibition zone (isolate AB30): 9 mm
Inhibition zone (isolate AB31): 9 mm
Inhibition zone (isolate AB32): 18 mm
Inhibition zone (isolate AB33): NZ
